In US11299509B2, “Trigger-activatable sugar conjugates for cancer-selective labeling and targeting” (The Board of Trustees of the University of Illinois, priority 2017, dated 2022):

Legend:
[1] = tested on: HepG2 (liver cancer) cells; assay: Metabolic azido-sugar cell labeling, DBCO-Cy5 detection by flow cytometry; type: cell-based; conditions: for Cell labeling (Cy5 fluorescence on the cell surface): 50 μM sugar, 72 h, DBCO-Cy5 25 μM, no UV
Experimental: (§1) These cells were incubated with Ac4GalNAz (AAG), Ac3GalNAzEt (AAG-Et), and PBS respectively for three days.
(§2) It is known that galactosamine can be preferentially taken up by hepatocytes (a type of liver cells) due to the presence of cell receptors such as asialoglycoprotein receptor (ASGPR). Tetraacetyl-N-azidoacetylgalactosamine (AAG) is relative hydrophobic and can passively diffuse into cells through hydrophobic interactions with the lipid cell membrane while N-azidoacetylgalactosamine (AG) is too hydrophilic to penetrate the lipid barrier by passive diffusion. Therefore, AG can only be taken up by cells through receptor-mediated endocytosis.
(§3) Cells were seeded onto coverslips in a 6-well plate at a cell density of 40 k/well. AAG or AAG derivatives were added and incubated with cells for 72 h. […] The opti-MEM was then removed and cells were washed with PBS three times. Cells were lifted by incubating with trypsin solution (100 μL) at 37° C. for 5 min and transferred to test tubes with addition of 4% PFA solution (0.4 mL). Ten thousand cells per sample were analyzed by flow cytometry and data analysis was performed on the FCS Express software.
(§4) AAG-Nb with a final concentration of 50 μM was added. UV light (10 mW/m^2) was applied for 15 min at the start of incubation, and the cells were further incubated for 72 h. Cells without UV irradiation were continuously incubated for 72 h. Cell samples for flow cytometry were then prepared following the above-mentioned procedures.

Jurkat (lymphoma) cells = assay: as above; type: cell-based; conditions: 50 μM sugar, 72 h, DBCO-Cy5 25 μM, no UV
Experimental: as §1, §2, §3, §4

[2] = tested on: MDA-MB-231 (triple negative breast cancer) cells; assay: as above; type: cell-based; conditions: 50 μM sugar, 72 h, DBCO-Cy5 25 μM, no UV
Experimental: as §1, §2, §3, §4

CD-1 mice = assay: Maximum tolerable dose (MTD) after i.v. injection; conditions: for Maximum tolerable dose (MTD): single i.v. injection, <20% body weight loss
Experimental: (§5) The maximum tolerable dose (MTD) of the two conjugates were also evaluated in CD-1 mice (FIG. 9). […] The sulfo-DBCO-TEG-VC-DOX was injected using PBS with only one time administration.
(§6) The maximum tolerable dose (MTD) of the two conjugates were also evaluated in mice (FIG. 15).
(§7) A model DBCO-paclitaxel conjugate, PTX-TEG-DBCO was prepared through well-established reactions.

[3] = Maximum tolerable dose (MTD) after i.v. injection; conditions: CD-1, mouse, in vivo
Experimental: as §5, §6, §7

physchem = assay: physchem
Experimental: Two DBCO-doxorubicin conjugates were synthesized with a cathepsin-B responsive peptide linker (VC). A tetraethyleneglycol unit was incorporated to improve the solubility of the conjugates (FIG. 7). A sulfonic acid-containing conjugate, sulfo-DBCO-TEG-VC-DOX was also prepared to further improve the solubility of the conjugate. […] The solubility of the two conjugates were first tested.
DBCO-DM1 conjugates (FIG. 11) were then synthesized through well-established chemistries. A polyethylene glycol 5000 was used in the design to serve the following purpose: 1. […] To increase the hydrophilicity of the drug conjugate such that its passive uptake in non-azide labeled cells can be reduced; 3. To increase the blood circulation half-time (pharmacokinetics) of the molecule in vivo.

HepG2 liver cancer cells [4] = assay: MTT cell viability assay of azido-sugars; type: cell-based; conditions: up to 200 μM, 72 h
Experimental: HepG2 liver cancer cells were seeded onto coverslips in a 6-well plate at a cell density of 40 k/well. Different azido-sugars (AG, AAG, and AAM) at different concentrations (50 μM-200 μM) were added, and the cells were incubated at 37° C. for 72 h. The medium was removed. Then 20 μL 3-(4,5-dimethyl-2-thiazolyl)-2,5-diphenyl-2H-tetrazolium bromide (MTT) (5 mg/mL in PBS) was added and cultured at 37° C. for 4 h. MTT is a substrate that provides a colorimetric signal in response to viable mitochondria. Following solubilization by 100 μl DMSO, absorbance at 570 nm was measured using a plate reader.

HepG2 liver cancer cells [5] = assay: SDS-PAGE analysis of cells treated with azido-sugars; type: cell-based; conditions: 72 h, DBCO-Cy5 25 μM
Experimental: HepG2 liver cancer cells were seeded onto 6-well plate at a cell density of 40 k/well. Different azido-sugars at different concentrations were added and incubated with cells for 72 h. After removal of medium and multiple washing steps, DBCO-Cy5 (25 μM) in opti-MEM was added and incubated with cells at 37° C. for 1 h. The opti-MEM was then removed and cells were washed with PBS three times. The cells were homogenized in 150 μL of lysis buffer (RIPA) containing protease inhibitor. The lysate was incubated at 4° C. for 30 min, followed by centrifugation at 5000 rcf for 5 min to remove insoluble debris. The total concentration of soluble protein in each sample was determined by bicinchoninic acid (BCA) assay and adjusted to the same concentration. 4× loading buffer was added to each sample and 15 μL samples containing 20 μg protein were loaded onto 10% SDS-PAGE gel after heating at 95° C. The gel was run for 60 min under 150 V. Cy-5 fluorescence was imaged by Imagequant LAS 4010 Luminescent image analyzer and the gel was further stained by coomassie blue

HepG2 liver cancer cells [6] = assay: Confocal imaging of azido-sugar labeled cells; type: cell-based; conditions: DBCO-Cy5 stain
Experimental: Cells were seeded onto coverslips in a 6-well plate at a cell density of 40 k/well. Ac4GalNAz (AAG) or AAG derivatives were added with a final concentration of 50 μM and the cells were incubated at 37° C. for 72 h. The medium was removed and washed with PBS for three times. DBCO-Cy5 (25 μM) in Opti-MEM was then added and the cells were incubated for another 1 h. Then the medium was removed, and the cells were washed with PBS three times. 4% paraformaldehyde (PFA) solution was added to fix the cells for 10 min, followed by staining of cell nucleus with Hoechst (1 μg/mL) and staining of cell membrane with cell mask orange (5 ug/mL) for 10 min. The coverslips were mounted on microscope slides with the addition of ProLong Gold antifade reagent, and the prepared sample was stored in dark for imaging.

[7] = tested on: a variety of breast cancer cell lines; conditions: down to; cited from earlier work
[8] = tested on: MDA-MB-231 breast cancer cell; assay: MTT assay to evaluate in vitro cytotoxicity; type: cell-based; conditions: 72 hours
Experimental: Standard MTT protocol was followed to evaluate the cytotoxicity of DBCO-drug conjugate. Briefly, MDA-MB-231 cells were seeded in 96-well plate at 3000 cells/well in 100 μL DMEM medium and were allowed to attach overnight. 10 μL DBCO-drug conjugate solution was added into the well to the designated final concentration and incubated at 37° C. for 72 hours. PBS was taken as 100% control. 20 μL 5 mg/mL MTT solution was added to the medium and incubated at 37° C. for 3 hours.

## CC(=O)OC[C@H]1OC(OC(C)=O)[C@H](NC(=O)CN=[N+]=[N-])[C@@H](OC(C)=O)[C@H]1OC(C)=O (stereo partly shown) [AAG, Tetraacetyl-N-azidoacetylgalactosamine]
[1]
  Cell labeling (Cy5 fluorescence on the cell surface): efficiently labeled
Jurkat (lymphoma) cells
  Cell labeling (Cy5 fluorescence on the cell surface): efficiently labeled
[2]
  Cell labeling (Cy5 fluorescence on the cell surface): efficiently labeled

## CC(=O)OC[C@H]1OC(OC(C)=O)[C@@H](NC(=O)CN=[N+]=[N-])[C@@H](OC(C)=O)[C@@H]1OC(C)=O (stereo partly shown) [AAM, tetraacetyl-N-azidoacetylmannosamine]
[1]
  Cell labeling (Cy5 fluorescence on the cell surface): efficiently labeled
Jurkat (lymphoma) cells
  Cell labeling (Cy5 fluorescence on the cell surface): efficiently labeled
[2]
  Cell labeling (Cy5 fluorescence on the cell surface): efficiently labeled

## COc1cccc2c1C(=O)c1c(O)c3c(c(O)c1C2=O)C[C@@](O)(C(=O)CO)C[C@@H]3O[C@H]1C[C@H](NC(=O)OCc2ccc(NC(=O)C(CCCNC(N)=O)NC(=O)[C@@H](NC(=O)CCC(=O)NCCOCCOCCOCCOCCC(=O)NCC(C(=O)NCCC(=O)N3Cc4ccccc4C#Cc4ccccc43)S(=O)(=O)O)C(C)C)cc2)[C@H](O)[C@H](C)O1 (stereo partly shown) [sulfo-DBCO-TEG-VC-DOX]
CD-1 mice; CD-1 mice, one time administration in PBS, up to highest dose used
  Body weight change: No body weight decrease
[3]; iv
  MTD: > 120 mg/kg
physchem; aqueous buffer
  solubility: 8000 to 10000 µg/mL

## [N-]=[N+]=NCC(=O)N[C@H]1C(O)O[C@H](CO)[C@H](O)[C@@H]1O (stereo partly shown) [AG, N-azidoacetylgalactosamine]
HepG2 liver cancer cells [4]
  Toxicity to cells (MTT): not toxic
HepG2 liver cancer cells [5]
  Azide groups on cell surface membrane protein (SDS-PAGE, Cy5 fluorescence): did containing azide groups
[1]
  Cell labeling (Cy5 fluorescence on the cell surface): positively labeled
[1]; concentration increased from 25 μM to 200 μM
  Concentration dependence of labeling: increased significantly
Jurkat (lymphoma) cells
  Cell labeling (Cy5 fluorescence on the cell surface): only HepG2 cells were positively labeled
[2]
  Cell labeling (Cy5 fluorescence on the cell surface): only HepG2 cells were positively labeled
HepG2 liver cancer cells [6]
  Localization of labeling (confocal microscopy): mainly localized on cell membrane

## N.N.[Cl][Pt][Cl] [cisplatin, reference compound]
CD-1 mice; CD-1 mice
  Maximum tolerable dose (MTD): about 5 mg/kg
CD-1 mice; CD-1 mice, listed as cis-platin
  Maximum tolerable dose (MTD): 5 mg/kg

## COc1cccc2c1C(=O)c1c(O)c3c(c(O)c1C2=O)C[C@@](O)(C(=O)CO)C[C@@H]3O[C@H]1C[C@H](NC(=O)OCc2ccc(NC(=O)C(CCCNC(N)=O)NC(=O)[C@@H](NC(=O)CCOCCOCCOCCOCCNC(=O)CCC(=O)N3Cc4ccccc4C#Cc4ccccc43)C(C)C)cc2)[C@H](O)[C@H](C)O1 (stereo partly shown) [DBCO-TEG-VC-DOX]
CD-1 mice; mouse, in vivo
  Body weight change: No significant body weight loss
[3]
  MTD: > 204 mg/kg
physchem; aqueous buffer
  solubility: < 50 µM
physchem; aqueous with cosolvent or surfactant or cyclodextrin
  solubility: ~3500 µg/mL

## CC(=O)O[C@H]1C(=O)[C@@]2(C)C([C@H](OC(=O)c3ccccc3)[C@]3(O)C[C@H](OC(=O)[C@H](OC(=O)COCCOCCOCCOCCNC(=O)CCC(=O)N4Cc5ccccc5C#Cc5ccccc54)[C@@H](NC(=O)c4ccccc4)c4ccccc4)C(C)=C1C3(C)C)[C@]1(OC(C)=O)CO[C@@H]1C[C@@H]2O (stereo partly shown) [PTX-TEG-DBCO]
[3]; iv
  MTD: > 200 mg/kg

## COc1cc2cc(c1Cl)N(C)C(=O)C[C@H](OC(=O)[C@H](C)N(C)C(=O)CCS)[C@]1(C)O[C@H]1[C@H](C)[C@@H]1C[C@@](O)(NC(=O)O1)[C@H](OC)/C=C/C=C(\C)C2 [DM1, Mertansine]
[7]
  in vitro IC50 value: tens
[8]
  IC50: ~30 pM
